Results reported in US4260607A, “Cephalosporin esters” (Takeda Chemical Industries, Ltd., priority 1976, dated 1981).
Converted amounts (≈) assume the structure as drawn. Where a name gives a salt, the structure may show the parent alone.

Tests used:
S. aureus 209P = assay: MIC, S. aureus 209P; assay type: cell-based; details: unit assumed
S. aureus 1840 = assay: MIC, S. aureus 1840; assay type: cell-based; details: unit assumed
E. coli NIHJ JC-2 = assay: MIC, E. coli NIHJ JC-2; assay type: cell-based; details: unit assumed
K. pneumoniae DT = assay: MIC, K. pneumoniae DT; assay type: cell-based; details: unit assumed
P. vulgaris Eb. 58 = assay: MIC, P. vulgaris Eb. 58; assay type: cell-based; details: unit assumed
E. coli 0-111 = assay: MIC, E. coli 0-111; assay type: cell-based; details: unit assumed
[1] = in vivo, po; for Blood-level in rat, 0.5 hours: 30 min; for Blood-level in rat, 1 hour: 60 min; for Blood-level in rat, 2 hours: 120 min; for Hydrolysis of 4-position ester after absorption in blood: rat

SMILES	MIC (S. aureus 209P) [µg/mL]	MIC (S. aureus 1840) [µg/mL]	MIC (E. coli NIHJ JC-2) [µg/mL]	MIC (K. pneumoniae DT) [µg/mL]	MIC (P. vulgaris Eb. 58) [µg/mL]	MIC (E. coli 0-111) [µg/mL]	Blood-level in rat, 0.5 hours ([1]; 100 mg/kg) [meg/ml]	Blood-level in rat, 1 hour ([1]; 100 mg/kg) [meg/ml]	Blood-level in rat, 2 hours ([1]; 100 mg/kg) [meg/ml]	Hydrolysis of 4-position ester after absorption in blood [1]	Blood-level in rat, 4 hours ([1]; 100 mg/kg, 240 min) [meg/ml]
Cc1nnc(SCC2=C(C(=O)O)N3C(=O)[C@@H](NC(=O)Cc4csc(=N)[nH]4)[C@H]3SC2)s1 [Compound (A)]	0.39 (≈ 0.805 µM)	0.78 (≈ 1.61 µM)	1.56 (≈ 3.22 µM)	0.39 (≈ 0.805 µM)	0.78 (≈ 1.61 µM)	0.39 (≈ 0.805 µM)					
CC1=C(C(=O)O)N2C(=O)[C@@H](NC(=O)[C@H](N)c3ccccc3)[C@H]2SC1 [Cephalexin, reference compound]		12.5 (≈ 36 µM)	12.5 (≈ 36 µM)	6.25 (≈ 18 µM)	12.5 (≈ 36 µM)	12.5 (≈ 36 µM)					
CCOC(=O)OC(C)OC(=O)C1=C(CSc2nnc(C)s2)CS[C@@H]2[C@H](NC(=O)Cc3csc(=N)[nH]3)C(=O)N12 (some centres unmarked) [Example 2]							32.4	28.3	21.0	hydrolyzed at 4-position carboxylic acid ester after being absorbed in blood	
Cc1nnc(SCC2=C(C(=O)OCOC(=O)C(C)(C)C)N3C(=O)[C@@H](NC(=O)Cc4csc(=N)[nH]4)[C@H]3SC2)s1 [Example 1, 7β-(2-imino-4-thiazolin-4-yl)acetamido-3-(5-methyl-1,3,4-thiadizolyl-2-yl)thiomethyl-3-cephem-4-pivaloyloxymethyl carboxylate hydrochloric acid salt]							31.8	29.3	22.0	hydrolyzed at 4-position carboxylic acid ester after being absorbed in blood	8.7
